# Reference: patent publication US20040002842A1, “Methods and systems for analyzing complex biological systems” (priority 2001, published 2004)
# Tests used:
# [1] = tested on: Arabidopsis plants; settings: nitrate addition to N-starved plants; cited from earlier work
# [2] = tested on: Arabidopsis thaliana plants; test: SOA1 phenotypic analysis of herbicide-treated plants (incl. MIC/Tmic); format: in vivo; settings: for leafCurling, Dev. / leafTwisting, Dev. / leafWidth, Dev. / matureLeafAnthocyanins, Dev. / matureLeafChlorosis, Dev. / matureLeafNecrosis, Dev. / newLeafAnthocyanins, Dev. / newLeafChlorosis, Dev. / newLeafNecrosis, Dev. / pointedLeaves, Dev.: herbicide sprayed on 21-day plants, numeric value standardized to mock treated; for characteristic symptoms (morphological phenotype): herbicide-treated plants; for tMic, Dev.: score for time to full symptoms at minimum inhibitory concentration
# [3] = tested on: Arabidopsis thaliana; test: MOA1 gene expression profiling (22,000 gene array); settings: 1 hr; for Regulated Genes Following Herbicide Treatment: Up / Regulated Genes Following Herbicide Treatment: Down: p < 0.5; for No. of Lethal Genes Altered: regulated genes compared to list of essential (lethal) genes
# [4] = tested on: Arabidopsis thaliana; test: MOA1 biochemical (metabolite) profiling by LC-MS and GC-MS; settings: within one hour after spraying
structure (smiles),measurement,setting,value
"O=[N+]([O-])O [Nitrate, nitrate]",Nitrate Regulation of Glutamate synthetase gene,[1],↑
same,Nitrate Regulation of Glutamine synthetase (2) genes,[1],↑
same,Nitrate Regulation of MADs Box (2) genes,[1],↓
same,Nitrate Regulation of MYB transcription factor gene,[1],↑
same,Nitrate Regulation of Malate Dehydrogenase gene,[1],↑
same,Nitrate Regulation of Nitrate transporter gene,[1],↑
same,Nitrate Regulation of Phosphate transporter gene,[1],↑
same,Nitrate Regulation of Transaldolase gene,[1],↑
same,Nitrate Regulation of Transketolase gene,[1],↑
CN(C)C(=O)Nc1ccc(Cl)c(Cl)c1 [Diuron],"leafCurling, Dev.",[2],1
same,"leafTwisting, Dev.",[2],0
same,"leafWidth, Dev.",[2],−2
same,"matureLeafAnthocyanins, Dev.",[2],0
same,"matureLeafChlorosis, Dev.",[2],2
same,"matureLeafNecrosis, Dev.",[2],4
same,"newLeafAnthocyanins, Dev.",[2],0
same,"newLeafChlorosis, Dev.",[2],2
same,"newLeafNecrosis, Dev.",[2],4
same,"pointedLeaves, Dev.",[2],1
same,characteristic symptoms (morphological phenotype),[2],rapid and widespread leaf necrosis
same,"tMic, Dev.",[2],1
CC(C)N1C(=O)c2ccccc2NS1(=O)=O [Bentazon],characteristic symptoms (morphological phenotype),[2],rapid and widespread leaf necrosis
Nc1nc[nH]n1 [Amitrole],characteristic symptoms (morphological phenotype),[2],leaf bleaching and leaf enlargement
COc1nc(C)nc(NC(=O)NS(=O)(=O)c2ccccc2Cl)n1 [Chlorsulfuron],characteristic symptoms (morphological phenotype),[2],anthocyanin accumulation in the older leaves accompanied by chlorosis of the newly emerging leaves
same,Regulated Genes Following Herbicide Treatment: Up,[3],97
same,No. of Lethal Genes Altered,[3],8
C[n+]1ccc(-c2cc[n+](C)cc2)cc1 [Paraquat],"leafCurling, Dev.",[2],2
same,"leafTwisting, Dev.",[2],0
same,"leafWidth, Dev.",[2],−1
same,"matureLeafAnthocyanins, Dev.",[2],0
same,"matureLeafChlorosis, Dev.",[2],1
same,"matureLeafNecrosis, Dev.",[2],4
same,"newLeafAnthocyanins, Dev.",[2],0
same,"newLeafChlorosis, Dev.",[2],1
same,"newLeafNecrosis, Dev.",[2],4
same,"pointedLeaves, Dev.",[2],1
same,characteristic symptoms (morphological phenotype),[2],rapid and widespread leaf necrosis
same,"tMic, Dev.",[2],2
"O=C(O)COc1ccc(Cl)cc1Cl [2,4-D]","leafCurling, Dev.",[2],1
same,"leafTwisting, Dev.",[2],2
same,"leafWidth, Dev.",[2],−1
same,"matureLeafAnthocyanins, Dev.",[2],1
same,"matureLeafChlorosis, Dev.",[2],2
same,"matureLeafNecrosis, Dev.",[2],0
same,"newLeafAnthocyanins, Dev.",[2],0
same,"newLeafChlorosis, Dev.",[2],1
same,"newLeafNecrosis, Dev.",[2],0
same,"pointedLeaves, Dev.",[2],0
same,Symptom Class,[2]; phenotype class of three-week-old treated plants (FIG. 12),5
same,"tMic, Dev.",[2],2
CSc1nnc(C(C)(C)C)c(=O)n1N [Metribuzin],characteristic symptoms (morphological phenotype),[2],rapid and widespread leaf necrosis
c1cc[n+]2c(c1)-c1cccc[n+]1CC2 [Diquat],"leafCurling, Dev.",[2],2
same,"leafTwisting, Dev.",[2],0
same,"leafWidth, Dev.",[2],−2
same,"matureLeafAnthocyanins, Dev.",[2],0
same,"matureLeafChlorosis, Dev.",[2],1
same,"matureLeafNecrosis, Dev.",[2],4
same,"newLeafAnthocyanins, Dev.",[2],0
same,"newLeafChlorosis, Dev.",[2],1
same,"newLeafNecrosis, Dev.",[2],4
same,"pointedLeaves, Dev.",[2],1
same,characteristic symptoms (morphological phenotype),[2],rapid and widespread leaf necrosis
same,"tMic, Dev.",[2],2
COC(=O)NS(=O)(=O)c1ccc(N)cc1 [Asulam],Regulated Genes Following Herbicide Treatment: Down,[3],7
same,Regulated Genes Following Herbicide Treatment: Up,[3],80
same,No. of Lethal Genes Altered,[3],5
O=C(O)c1cc(Oc2ccc(C(F)(F)F)cc2Cl)ccc1[N+](=O)[O-] [Acifluorfen],characteristic symptoms (morphological phenotype),[2],Necrotic leaf flecks
CCNc1nc(Cl)nc(NC(C)C)n1 [Atrazine],characteristic symptoms (morphological phenotype),[2],rapid and widespread leaf necrosis
CCc1cnc(C2=NC(C)(C(C)C)C(=O)N2)c(C(=O)O)c1 (stereo not shown) [Imazethapyr],characteristic symptoms (morphological phenotype),[2],anthocyanin accumulation in the older leaves accompanied by chlorosis of the newly emerging leaves
"CNc1cnn(-c2cccc(C(F)(F)F)c2)c(=O)c1Cl [Norfluazon, Norflurazon]",stress related metabolites,[4],"Only a few, if any"
O=C(O)c1ccccc1C(=O)Nc1cccc2ccccc12 [Naptalam],Regulated Genes Following Herbicide Treatment: Down,[3],47
same,Regulated Genes Following Herbicide Treatment: Up,[3],50
same,No. of Lethal Genes Altered,[3],3
